This is an account of results in ChEMBL document CHEMBL1201862, “PubChem BioAssay data set” (2004).

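Where inhibition never reached the appropriate level, the endpoint shown equals the highest concentration tested. Otherwise, values were interpolated linearly from a five-concentration, 48-hour dose response in 96-well plates. GI50 is the concentration that inhibits growth by half.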 Active and inactive are the calls of the source. Rule as the data show it: active = GI50 up to about 1.1 µM and inactive = higher.

Common to all, as to test: NCI anticancer screen, dose series, 48 h
The subject of assay [1] is SF-295.
The subject of assay [2] is K562.
Assay [3] deals with OVCAR-8.
The test system of assay [4] is SNB-19.
Assay [5] deals with SF-268.
Assay [6] has as its system Malme-3M.
The test system of assay [7] is ACHN.
For assay [8], the system named is LOX IMVI.
Assay [9] relates to SK-MEL-28.
The test system of assay [10] is KM12.
Assay [11] concerns OVCAR-4.
In assay [12] the test system is HCC 2998.
Assay [13] concerns UO-31.
Assay [14] concerns HCT-15.
In assay [15] the test system is SK-MEL-5.
Assay [16] concerns OVCAR-5.
Assay [17] relates to SK-MEL-2.
The subject of assay [18] is HCT-116.
For assay [19], the system named is A498.

Take `COC(=O)N/N=C(/CCC(=O)Nc1ccc(C)c(C)c1)CC(=O)C(C)(C)C`: the GI50 in [1], in assay [2], in assay [3], in assay [4], in assay [5] and in assay [6] was > 100 µM (inactive) in each case. The GI50 in assay [7], in [8], in [9], in assay [10], in assay [11] and in assay [12] was > 100 µM (inactive) throughout. The GI50 was > 100 µM (inactive) in assay [13]; more than 100 µM in assay [14]; > 100 µM (inactive) in [15]; > 100 µM (inactive) in assay [16]; > 100 µM (inactive) in assay [17].

Turning to `O=C(O)CN1CCNCCN(CP(=O)(O)O)CC1`, the GI50 was 26.2 µM (inactive) in [1]; 3.92 µM (inactive) in assay [2]; > 100 µM (inactive) in [4]; 22.3 µM (inactive) in assay [5]; 1.75 µM (inactive) in assay [6]; > 100 µM (inactive) in assay [7]. In addition, the GI50 in assay [9] is > 100 µM (inactive); in assay [10], 5.47 µM (inactive); in [11], 24.6 µM (inactive); in assay [12], 3.28 µM (inactive); in assay [18] it was 3.87 µM (inactive); in assay [19] it was > 19.7 µM (inactive). Also, the GI50 in [13] is 53.2 µM (inactive); in assay [14] it was 4.25 µM; in [15], 4.28 µM (inactive); in assay [16], 6.52 µM (inactive); in [17], 7.03 µM (inactive).

`N#Cc1ccc(Oc2nc3ccccc3nc2-c2ccccc2)cc1`: the GI50 in [1], in [2], in [4], in assay [5], in assay [6] and in assay [7] was > 100 µM (inactive) each time. Also, the GI50 in [8], in assay [9], in [10], in assay [11], in assay [12] and in assay [18] was > 100 µM (inactive) in each case. In addition, the GI50 in assay [19] was > 100 µM (inactive); in [13], > 100 µM (inactive); in assay [14], more than 100 µM; in [15] it was > 100 µM (inactive); in assay [16], > 100 µM (inactive); in assay [17] it was > 100 µM (inactive).

On to `ClC/C=C/COC1CCCCO1` (centres undefined), for which the GI50 in assay [1] was > 100 µM (inactive); in assay [2], > 100 µM (inactive); in assay [3], 57.5 µM (inactive); in assay [4], > 100 µM (inactive); in [5], 63.7 µM (inactive); in [6], > 100 µM (inactive). Further, the GI50 is 60.5 µM (inactive) in assay [7]; > 100 µM (inactive) in assay [10]; > 100 µM (inactive) in assay [11]; > 100 µM (inactive) in assay [12]; > 100 µM (inactive) in assay [18]; > 100 µM (inactive) in assay [19]. Also, the GI50 is > 100 µM (inactive) in assay [13]; more than 100 µM in assay [14]; > 100 µM (inactive) in [15]; > 100 µM (inactive) in assay [16]; > 100 µM (inactive) in [17].

In the case of `CCOC(=O)C1=C(C)N(c2ccc(C)cc2)C2=C(C(=O)N(c3ccccc3)C2c2ccccc2)C1c1ccccc1` (centres undefined), the GI50 in [1] is 22.2 µM (inactive); in assay [2], 19.8 µM (inactive); in [3] it was > 25 µM (inactive); in assay [4], > 25 µM (inactive); in assay [5], > 25 µM (inactive); in [6], > 25 µM (inactive). In addition, the GI50 is 16.6 µM (inactive) in assay [7]; > 25 µM (inactive) in [8]; > 25 µM (inactive) in [9]; 11.3 µM (inactive) in assay [11]; 18.4 µM (inactive) in assay [12]; 17.6 µM (inactive) in [18]. The GI50 in [19] is > 25 µM (inactive); in assay [13], 21 µM (inactive); in assay [14] it was more than 25 µM; in assay [15], 16.5 µM (inactive); in assay [17], > 25 µM (inactive).

On to `COc1ccc(/C(C)=N/NC(N)=S)c(OC)c1`, for which the GI50 in assay [1], in [2], in assay [3], in [4], in assay [5] and in assay [6] was > 100 µM (inactive) in each case. Besides, the GI50 in [7], in assay [8], in assay [9], in assay [10], in assay [12] and in assay [18] was > 100 µM (inactive) each time. Further, the GI50 was > 100 µM (inactive) in assay [19]; > 100 µM (inactive) in assay [13]; more than 100 µM in assay [14]; > 100 µM (inactive) in assay [15]; > 100 µM (inactive) in assay [16]; > 100 µM (inactive) in [17].

For the molecule `CN1C(=O)N(c2nc3ccccc3[nH]2)C(C)(C)C1=O`, the GI50 in [1], in [2], in assay [3], in [4], in [5] and in [6] was > 100 µM (inactive) throughout. Besides, the GI50 in assay [7], in assay [8], in [9], in [10], in [11] and in [18] was > 100 µM (inactive) throughout. In addition, the GI50 in assay [19] was > 100 µM (inactive); in assay [13], > 100 µM (inactive); in assay [14], more than 100 µM; in assay [15], > 100 µM (inactive); in [17] it was > 100 µM (inactive).

Regarding `Clc1ccccc1C1N2CCCCC2[C@@H]2c3[nH]c4ccccc4c3CCN12` (some centres undefined), the GI50 in assay [1] is 25.4 µM (inactive); in assay [2], 14.3 µM (inactive); in assay [3], 19.8 µM (inactive); in assay [4], 23 µM (inactive); in assay [5], 17.9 µM (inactive); in assay [6] it was 4.84 µM (inactive). Moreover, the GI50 in [7] is 16.2 µM (inactive); in assay [9], 18.5 µM (inactive); in assay [11], 19.1 µM (inactive); in [12], 18.6 µM (inactive); in assay [18], 18.5 µM (inactive); in assay [19] it was 13.9 µM (inactive). Further, the GI50 in assay [13] is 19.5 µM (inactive); in assay [14] it was 16.2 µM; in assay [15] it was > 10 µM (inactive); in [16], 20.9 µM (inactive); in assay [17], 16.7 µM (inactive).

For the molecule `COc1ccc(/C=C/c2nnc(S)[nH]2)cc1OC`, the GI50 in assay [1], in assay [2], in assay [3], in assay [4], in [5] and in assay [6] was > 100 µM (inactive) in each case. The GI50 in assay [7], in assay [8], in assay [9], in [11], in assay [12] and in assay [18] was > 100 µM (inactive) each time. The GI50 is > 100 µM (inactive) in assay [19]; > 100 µM (inactive) in assay [13]; more than 100 µM in [14]; > 100 µM (inactive) in assay [15]; > 100 µM (inactive) in assay [16]; > 100 µM (inactive) in assay [17].

As for `O=C1C(Cl)C(c2cc(Br)cc(Br)c2O)N1n1cnc2ccccc2c1=O` (centres undefined), the GI50 in assay [1] was 6.76 µM (inactive); in assay [2], 26.2 µM (inactive); in assay [3], 24.7 µM (inactive); in assay [4], 30.3 µM (inactive); in assay [5], 10.7 µM (inactive); in [6], 19 µM (inactive). For the same molecule, the GI50 in [7] was 28.2 µM (inactive); in assay [8], 14.1 µM (inactive); in assay [9] it was 19.6 µM (inactive); in assay [10], 25.1 µM (inactive); in assay [11] it was 9.55 µM (inactive); in assay [12] it was 30.2 µM (inactive). Besides, the GI50 is 18.9 µM (inactive) in assay [18]; 20.7 µM (inactive) in assay [13]; 20.3 µM in assay [14]; 18.8 µM (inactive) in assay [15]; 19.4 µM (inactive) in assay [16]; 21.1 µM (inactive) in assay [17].

As for `O=c1c2ccccc2nc(-c2cccc(Cl)c2)n1NCC1(O)OCC(O)C(O)C1O` (centres undefined), the GI50 in assay [1] was > 100 µM (inactive); in assay [2], 45.7 µM (inactive); in assay [3] it was > 100 µM (inactive); in assay [4], > 100 µM (inactive); in assay [5], > 100 µM (inactive); in assay [6], > 100 µM (inactive). Also, the GI50 in assay [7], in [8], in [9], in assay [10], in assay [11] and in assay [18] was > 100 µM (inactive) throughout. The GI50 in [19] was > 100 µM (inactive); in assay [13], > 100 µM (inactive); in assay [14], more than 100 µM; in [15], > 10 µM (inactive); in assay [16], > 100 µM (inactive); in assay [17] it was > 100 µM (inactive).

For the molecule `CCOC(=O)c1[nH]c(COC(C)=O)c(CCCOC(C)=O)c1CCCOC(C)=O`, the GI50 in [1], in assay [2], in assay [3], in assay [4], in assay [5] and in assay [6] was > 100 µM (inactive) in each case. Moreover, the GI50 in assay [7], in assay [8], in assay [9], in [10], in assay [11] and in assay [12] was > 100 µM (inactive) each time. The GI50 in [18] was > 100 µM (inactive); in assay [19] it was > 100 µM (inactive); in assay [14], more than 100 µM; in [16], > 100 µM (inactive); in assay [17], > 100 µM (inactive).
